Experimental data reported in ChEMBL document CHEMBL1132123, “The synthesis and biological activity of a series of 2,4-diaminopyrido[2,3-d]pyrimidine based antifolates as antineoplastic and antiarthritic agents” (Bioorg Med Chem Lett, 1999).

Key:
[1] = Vmax/Km value was determined
Rattus norvegicus [2] = experiment: Compound evaluated for inhibition of rat paw swelling after ip administration at 0.06 mg/kg in delayed phase; type: functional; conditions: route intraperitoneal
Rattus norvegicus [3] = experiment: Compound evaluated for inhibition of rat paw swelling after ip administration at 0.125 mg/kg and expressed as net swelling in mL of displaced water in acute phase; type: functional; conditions: route intraperitoneal
Rattus norvegicus [4] = experiment: Compound evaluated for inhibition of rat paw swelling after ip administration at 0.06 mg/kg in acute phase; type: functional; conditions: route intraperitoneal
Rattus norvegicus [5] = experiment: Compound evaluated for inhibition of rat paw swelling after ip administration at 0.06 mg/kg and expressed as net swelling in mL of displaced water in acute phase; type: functional; conditions: route intraperitoneal
Rattus norvegicus [6] = experiment: Compound evaluated for inhibition of rat paw swelling after ip administration at 0.125 mg/kg in delayed phase; type: functional; conditions: route intraperitoneal
Rattus norvegicus [7] = experiment: Compound evaluated for inhibition of rat paw swelling after ip administration at 0.125 mg/kg in acute phase; type: functional; conditions: route intraperitoneal
Rattus norvegicus [8] = experiment: Compound evaluated for inhibition of rat paw swelling after ip administration at 0.06 mg/kg and expressed as net swelling in mL of displaced water in delayed phase; type: functional; conditions: route intraperitoneal
[9] = molecular target: T1, Trifunctional purine biosynthetic protein adenosine-3 (Mus musculus, UniProt Q64737); experiment: Inhibitory activity against murine glycinamide ribonucleotide formyltransferase (GARFT) enzyme
T1 sequence (Q64737 whole entry): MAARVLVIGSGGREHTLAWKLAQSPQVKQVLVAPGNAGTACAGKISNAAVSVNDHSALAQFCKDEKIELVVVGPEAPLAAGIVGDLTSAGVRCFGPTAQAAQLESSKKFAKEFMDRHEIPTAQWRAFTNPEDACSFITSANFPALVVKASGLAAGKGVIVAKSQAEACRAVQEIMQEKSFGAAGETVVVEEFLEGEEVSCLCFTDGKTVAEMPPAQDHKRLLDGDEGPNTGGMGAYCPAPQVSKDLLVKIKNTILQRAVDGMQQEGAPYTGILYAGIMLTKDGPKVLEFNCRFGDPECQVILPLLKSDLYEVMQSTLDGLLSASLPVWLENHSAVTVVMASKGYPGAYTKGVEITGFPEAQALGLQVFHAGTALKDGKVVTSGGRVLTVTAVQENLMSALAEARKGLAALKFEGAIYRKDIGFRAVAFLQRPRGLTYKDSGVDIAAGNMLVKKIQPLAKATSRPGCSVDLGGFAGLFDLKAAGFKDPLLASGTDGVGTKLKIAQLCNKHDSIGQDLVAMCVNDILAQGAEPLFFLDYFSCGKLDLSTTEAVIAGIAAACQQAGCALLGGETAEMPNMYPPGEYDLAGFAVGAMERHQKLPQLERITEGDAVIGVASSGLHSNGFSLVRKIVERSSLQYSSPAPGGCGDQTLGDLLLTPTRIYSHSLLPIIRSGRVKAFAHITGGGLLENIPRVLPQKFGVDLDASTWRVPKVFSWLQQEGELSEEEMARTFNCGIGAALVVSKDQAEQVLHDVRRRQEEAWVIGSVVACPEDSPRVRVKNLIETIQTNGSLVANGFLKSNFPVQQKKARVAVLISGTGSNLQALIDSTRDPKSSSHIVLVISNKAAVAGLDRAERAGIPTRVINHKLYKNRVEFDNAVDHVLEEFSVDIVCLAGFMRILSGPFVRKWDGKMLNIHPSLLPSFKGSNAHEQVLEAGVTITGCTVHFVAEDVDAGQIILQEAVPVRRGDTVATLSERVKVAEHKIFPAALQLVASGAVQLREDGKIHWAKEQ

Rattus norvegicus [10] = experiment: Compound evaluated for inhibition of rat paw swelling after ip administration at 0.125 mg/kg and expressed as net swelling in mL of displaced water in delayed phase; type: functional; conditions: route intraperitoneal
Thymidylate synthase [11] = molecular target: T2, Thymidylate synthase (Homo sapiens, UniProt P04818); experiment: Inhibitory activity against recombinant human Thymidylate synthase
Dihydrofolate reductase = molecular target: T3, Dihydrofolate reductase (Homo sapiens, UniProt P00374); experiment: Inhibitory activity against recombinant human dihydrofolate reductase (DHFR)
T3 sequence (P00374 whole entry): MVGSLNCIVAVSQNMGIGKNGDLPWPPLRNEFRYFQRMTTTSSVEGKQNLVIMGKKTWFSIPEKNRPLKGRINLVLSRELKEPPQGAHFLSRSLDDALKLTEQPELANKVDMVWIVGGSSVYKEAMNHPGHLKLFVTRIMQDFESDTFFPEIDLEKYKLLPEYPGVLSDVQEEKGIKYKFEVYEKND

Rattus norvegicus [12] = experiment: Compound evaluated for inhibition of rat paw swelling after ip administration at 0.30 mg/kg in delayed phase; type: functional; conditions: route intraperitoneal
Rattus norvegicus [13] = experiment: Compound evaluated for inhibition of rat paw swelling after ip administration at 0.30 mg/kg and expressed as net swelling in mL of displaced water in delayed phase; type: functional; conditions: dose 0.3 mg/kg; route intraperitoneal
Thymidylate synthase [14] = molecular target: T2, Thymidylate synthase; experiment: Inhibitory activity against recombinant human Thymidylate synthase enzyme
[15] = substrate: Nc1nc(O)c2c(n1)NCC(CCc1ccc(C(=O)NC(CCC(=O)O)C(=O)O)cc1)C2; experiment: (§1) Michaelis-Menten constant for hog liver folyl-poly-glutamate synthetase (FPGS); conditions: Sus scrofa
[16] = substrate: C[C@](CCC(=O)O)(NC(=O)c1ccc(CCC2CNc3nc(N)nc(N)c3C2)s1)C(=O)O; experiment: as §1; conditions: Sus scrofa
[17] = substrate: C[C@](CCC(=O)O)(NC(=O)c1ccc(CCC2CNc3nc(N)nc(N)c3C2)cc1)C(=O)O; experiment: as §1; conditions: Sus scrofa
[18] = substrate: C[C@](CCC(=O)O)(NC(=O)c1ccc(CCC2CNc3nc(N)nc(N)c3C2)o1)C(=O)O; experiment: as §1; conditions: Sus scrofa
[19] = substrate: Nc1nc(O)c2c(n1)NCC(CCc1ccc(C(=O)NC(CCC(=O)O)C(=O)O)cc1)C2; experiment: (§2) Maximum rate of metabolism by hog liver folyl-poly-glutamate synthetase (FPGS) was determined; conditions: Sus scrofa
[20] = substrate: C[C@](CCC(=O)O)(NC(=O)c1ccc(CCC2CNc3nc(N)nc(N)c3C2)s1)C(=O)O; experiment: as §2; conditions: Sus scrofa
[21] = substrate: C[C@](CCC(=O)O)(NC(=O)c1ccc(CCC2CNc3nc(N)nc(N)c3C2)cc1)C(=O)O; experiment: as §2; conditions: Sus scrofa
[22] = substrate: C[C@](CCC(=O)O)(NC(=O)c1ccc(CCC2CNc3nc(N)nc(N)c3C2)o1)C(=O)O; experiment: as §2; conditions: Sus scrofa

T2 sequence (P04818 whole entry): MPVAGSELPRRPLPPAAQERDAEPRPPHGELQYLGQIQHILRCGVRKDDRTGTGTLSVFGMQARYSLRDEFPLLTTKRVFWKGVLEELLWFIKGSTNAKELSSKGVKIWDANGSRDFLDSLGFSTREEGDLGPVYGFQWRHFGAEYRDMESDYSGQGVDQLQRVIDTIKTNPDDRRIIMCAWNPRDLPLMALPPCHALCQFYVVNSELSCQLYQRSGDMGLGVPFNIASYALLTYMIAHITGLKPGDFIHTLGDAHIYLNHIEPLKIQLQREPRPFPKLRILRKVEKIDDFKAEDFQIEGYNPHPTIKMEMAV

## CN(Cc1cnc2nc(N)nc(N)c2n1)c1ccc(C(=O)N[C@@H](CCC(=O)O)C(=O)O)cc1
[1]
  Vmax / Km: 4.3

## C[C@](CCC(=O)O)(NC(=O)c1ccc(CCC2CNc3nc(N)nc(N)c3C2)cc1)C(=O)O (some centres not stated)
Rattus norvegicus [2]
  inhibition in vivo at 0.06 mg/kg: 0%
[1]
  Vmax / Km: 40
Rattus norvegicus [3]
  Net Swelling: 0.55
Rattus norvegicus [4]
  inhibition in vivo at 0.06 mg/kg: 0%
Rattus norvegicus [5]
  Net Swelling: 0.82
Rattus norvegicus [6]
  inhibition in vivo at 0.125 mg/kg: 14%
Rattus norvegicus [7]
  inhibition in vivo at 0.125 mg/kg: 35%
Rattus norvegicus [8]
  Net Swelling: 0.15
[9]
  Ki: 56 µM
Rattus norvegicus [10]
  Net Swelling: 0.12
Thymidylate synthase [11]
  Ki: > 5 µM
Dihydrofolate reductase
  Ki: 0.29 nM

## C[C@]12CCC(=O)C=C1CCC1[C@@H]2[C@@H](O)C[C@@]2(C)[C@H]1CC[C@]2(O)C(=O)CO (single isomer, unassigned) [HYDROCORTISONE]
Rattus norvegicus [12]
  inhibition in vivo at 0.3 mg/kg: 36%
Rattus norvegicus [13]
  Net Swelling: 0.09

## C[C@](CCC(=O)O)(NC(=O)c1ccc(CCC2CNc3nc(N)nc(N)c3C2)s1)C(=O)O (some centres not stated)
[1]
  Vmax / Km: 98
Thymidylate synthase [14]
  Ki: > 5 µM
[9]
  Ki: 9.2 µM
Dihydrofolate reductase
  Ki: 0.69 nM

## Nc1nc(O)c2c(n1)NCC(CCc1ccc(C(=O)NC(CCC(=O)O)C(=O)O)cc1)C2 (configuration not stated)
[1]
  Vmax / Km: 60

## C[C@](CCC(=O)O)(NC(=O)c1ccc(CCC2CNc3nc(N)nc(N)c3C2)o1)C(=O)O (some centres not stated)
[1]
  Vmax / Km: 9.2
Thymidylate synthase [14]
  Ki: > 5 µM
[9]
  Ki: 0.71 µM
Dihydrofolate reductase
  Ki: 9.87 nM

B1: Folylpolyglutamate synthase, mitochondrial (Homo sapiens), Q05932 (protein)
chain: MSRARSHLRAALFLAAASARGITTQVAARRGLSAWPVPQEPSMEYQDAVRMLNTLQTNAGYLEQVKRQRGDPQTQLEAMELYLARSGLQVEDLDRLNIIHVTGTKGKGSTCAFTECILRSYGLKTGFFSSPHLVQVRERIRINGQPISPELFTKYFWRLYHRLEETKDGSCVSMPPYFRFLTLMAFHVFLQEKVDLAVVEVGIGGAYDCTNIIRKPVVCGVSSLGIDHTSLLGDTVEKIAWQKGGIFKQGVPAFTVLQPEGPLAVLRDRAQQISCPLYLCPMLEALEEGGPPLTLGLEGEHQRSNAALALQLAHCWLQRQDRHGAGEPKASRPGLLWQLPLAPVFQPTSHMRLGLRNTEWPGRTQVLRRGPLTWYLDGAHTASSAQACVRWFRQALQGRERPSGGPEVRVLLFNATGDRDPAALLKLLQPCQFDYAVFCPNLTEVSSTGNADQQNFTVTLDQVLLRCLEHQQHWNHLDEEQASPDLWSAPSPEPGGSASLLLAPHPPHTCSASSLVFSCISHALQWISQGRDPIFQPPSPPKGLLTHPVAHSGASILREAAAIHVLVTGSLHLVGGVLKLLEPALSQ
[15]
  Km: 16.4 µM
[16]
  Km: 11.6 µM
[17]
  Km: 28.2 µM
[18]
  Km: 75.3 µM
[19]
  Vmax: 977 nM/h/mg
[20]
  Vmax: 1140 nM/h/mg
[21]
  Vmax: 1190 nM/h/mg
[22]
  Vmax: 696 nM/h/mg
